Holding throughout (type): cell-based, Oryza sativa var. Kinmaze
Experiment [1] concerns Sr line resistant mutant rice culture cells. Kind of experiment: Growth of rice culture cells (relative wet weight of callus) in the presence of herbicide, Sr line. The method, then: (§1) Next, endosperm portions were removed from the callus induced on the medium, and then subculture was performed. Then, part of the obtained calli was sub-cultured, that is, cultured successively once per two weeks in a liquid medium (the composition is the same as in that shown in Table 3, but not supplemented with Gelrite) supplemented with 1 μM bispyribac-sodium (one type of PC herbicides). Two to 6 weeks later the culture cells started to wither. About 2 months later, a plurality of non-discolored cell masses that were thought to be conducting cell division were obtained from among culture cell populations most of which had died and became discolored brown. These cell masses were isolated and cultured, so that a plurality of cell lines that can proliferate in the presence of 2 μM bispyribac-sodium were obtained. […]
(§2) Approximately 1.5 g (wet weight) of the resistant mutant was transplanted into a 200 ml Erlenmeyer flask supplemented with 50 ml of a MS-2,4-D liquid medium and bispyribac-sodium at a certain concentration, followed by culturing at approximately 27° C. for a certain period. The wet weight of the callus was measured periodically. The relative amount of increase was determined based on the wet weight of the transplanted resistant mutant. In addition, the experiment was performed three times with different bispyribac-sodium concentrations, and the standard error was calculated. […]

The test system of experiment [2] is Vg line resistant mutant rice culture cells. Put plainly: Growth of rice culture cells (relative wet weight of callus) in the presence of herbicide, Vg line. The method, then:
as §1, §2

The test system of experiment [3] is Rb line resistant mutant rice culture cells. Put plainly: Growth of rice culture cells (relative wet weight of callus) in the presence of herbicide, Rb line. How it is done:
as §1, §2

Experiment [4] deals with wild type (Kinmaze) rice culture cells. Put plainly: Growth of rice culture cells (relative wet weight of callus) in the presence of herbicide, wild type. How it is done:
Approximately 1.5 g (wet weight) of the resistant mutant was transplanted into a 200 ml Erlenmeyer flask supplemented with 50 ml of a MS-2,4-D liquid medium and bispyribac-sodium at a certain concentration, followed by culturing at approximately 27° C. for a certain period. The wet weight of the callus was measured periodically. The relative amount of increase was determined based on the wet weight of the transplanted resistant mutant. In addition, the experiment was performed three times with different bispyribac-sodium concentrations, and the standard error was calculated. FIGS. 3 to 6 show the relation between changes in bispyribac-sodium concentration and the relative weight on day 8 or 12 in the resistant mutant. As a control, a similar experiment was conducted using the wild type (Kinmaze).
Also, in the case of using chlorsulfuron instead of bispyribac-sodium, the growth rates of the wild type and the resistant mutants were measured as described above. […] Further, FIGS. 9 to 12 show the relation between changes in chlorsulfuron concentration and relative weight on day 8 or 10 in the resistant mutants, that is, Rb line, Sr line, Ga line and Vg line.

The subject of experiment [5] is Ga line resistant mutant rice culture cells. Put plainly: Growth of rice culture cells (relative wet weight of callus) in the presence of herbicide, Ga line. How it is done: as §1, §2
The mark [6] stands for this setting: group supplemented with 10 μM, day 8 or 12.
[7] abbreviates: group supplemented with 1 nM herbicide, day 8 (bispyribac-sodium) or day 9 (chlorsulfuron).

In the case of `COc1cc(OC)nc(Oc2cccc(Oc3nc(OC)cc(OC)n3)c2C(=O)O)n1` [bispyribac-sodium], in experiment [1] (setting [6]), the “growth of Sr line (relative weight)” value is “almost none of the growth”. Besides, the “effect on the growth of Vg line” value in experiment [2] (compared with wild type, day 8 or 12) is “smaller than that in the wild type”. Also, the “growth of Rb line (relative weight)” value in experiment [3] (setting [6]) is listed as “almost none of the growth”. Further, the “growth of the wild type (relative weight)” value in experiment [4] (setting [7]) is recorded as “not inhibited”; in experiment [4] (group supplemented with 10 nM or more, day 8), “inhibited”. In addition, the “growth of Ga line (relative weight)” value in experiment [5] (setting [6]) was “almost none of the growth”.
Consider `COc1nc(C)nc(NC(=O)NS(=O)(=O)c2ccccc2Cl)n1` [chlorsulfuron], for which the “growth of Sr line on addition of herbicide (relative weight)” value in experiment [1] (day 8 or 10) is on record as “not inhibited so much”. For the same compound, the “growth of Vg line on addition of herbicide (relative weight)” value in experiment [2] (day 8 or 10) is “not inhibited so much”. Further, the “growth of Rb line on addition of herbicide (relative weight)” value in experiment [3] (day 8 or 10) is recorded as “not inhibited so much”. For the same compound, the “growth of the wild type (relative weight)” value in experiment [4] (setting [7]) was “inhibited”. The “growth of Ga line on addition of herbicide (relative weight)” value in experiment [5] (day 8 or 10) is “not inhibited so much”.

These data come from patent US8030547B2, “Gene coding for acetolactate synthase” (priority 2002, dated 2011).
